According to patent publication US20250163055A1, “POLYMORPH OF JAK TYROSINE KINASE INHIBITOR AND PREPARATION METHOD THEREFOR” (Prime Gene Therapeutics Co., Ltd., priority 2022, published 2025):
Values after ≈ are worked out from the molar mass of the structure shown. “Also recorded” adds a separate entry of the source. Like-named read-outs stand apart in the source and are kept apart here. Each block holds one compound with its values, some of them ahead of it.

Tests used:
[1] = Solubility of crystal forms in 20% propylene glycol at 32° C. over time; assay type: physicochemical; conditions: aqueous with cosolvent or surfactant or cyclodextrin, thermodynamic from solid
Excerpt: (§1) Solubility Investigation of Different Crystal Forms

[2] = Long-term (24-months) stability of crystal forms; assay type: physicochemical; conditions: for stability of the crystal form (result in words): long-term stability investigation, summary; for Appearance / Content / Loss on Drying / Related Substances, Most Unknown Impurity / Related Substances, Total Impurities / Crystal Form: long-term stability
Excerpt: The crystals prepared in examples 1, 3 and 6 were selected, and the stability of the crystal forms 1, IIa and IIb was investigated in accordance with the stability research guidelines issued by the National Medical Product Administration. The crystals were packed in pharmaceutical low-density polyethylene bags, and 24 months long-term stability was investigated.

[3] = Pharmacokinetic experiment in male SD rats (oral, intravenous, transdermal); assay type: in vivo, rat
Description: (§2) The solid powders of Examples 1 and 6, and the hydrogel preparations thereof were taken, and the PK values of rats administered by oral gavage and transdermal application were respectively determined. Male SD rats were divided into groups, 3 rats in each group, and were administered the compounds obtained in Examples 1 and 6 by oral gavage (oral group). administered Example 1 intravenously (intravenous group), and administered the gel preparations prepared from the compounds of Examples 1 and 6 topically to the skin (transdermal group). Animals were fasted overnight before the experiment, and the fasting time ranged from 10 hours before administration to 4 hours after administration. Blood was collected at 0.25, 0.5, 1, 2, 4, 6, 8 and 24 hours after administration in oral group and transdermal group, and at 0.083, 0.25, 0.5, 1, 2, 4, 6, 8 and 24 hours after administration in intravenous group. After being anesthetized with isoflurane using a small animal anesthesia machine, 0.3 mL of whole blood was collected through the fundus venous plexus and placed in a heparin anticoagulant tube. The blood samples were centrifuged at 4° C. and 4000 rpm for 5 min, and plasma was transferred to a centrifuge tube and placed at −80° C. until analysis. Plasma was extracted by protein precipitation method, and the extract was analyzed by LC/MS/MS. The transdermal group was administered for 24 hours and the skin at the administration site was peeled off after washing off the epidermal drug, and the drug content in the skin was analyzed by LC/MS/MS after homogenization.

[4] = Solubility measurement at different pH (37° C., 24 h); assay type: physicochemical; conditions: for solubility at 24 h: 37 °C, thermodynamic from solid, read-out: solubility, concentration
Excerpt: as §1

[5] = Transdermal test of gel preparations (transdermal rate); assay type: in vitro ADME; conditions: gel preparation; receiving medium 5.0% Tween 80, pH 5.5 phosphate
Excerpt: Take the crystal obtained in Examples 1 or 6 and prepare it into gel preparation (the process for preparing the gel preparation can be: after stirring PEG400, propylene glycol, glycerin, ethanol and the crystal of Example 1 or 6, mix with EDTA aqueous solution, add in the swelled carbomer aqueous solution, adjust pH to be 6 with 10% triethanolamine solution, to obtain the gel). Measure respective transdermal rate (receiving medium 5.0% Tween 80, pH 5.5 phosphate).

[6] = Drug concentration in the skin after topical administration to skin for 24 hours; assay type: in vivo, rat; conditions: topical gel
Description: as §2, with “After being anesthetized with isoflurane using a small animal anesthesia machine, 0.3 mL of whole blood was collected through the fundus venous plexus and placed in a heparin anticoagulant tube. The blood samples were centrifuged at 4° C. and 4000 rpm for 5 min, and plasma was transferred to a centrifuge tube and placed at −80° C. until analysis.” left out

[7] = Stability of crystal form III on standing (NMR); assay type: physicochemical
Description: 15 mg of 2-{3-[3-amino-4-(7H-pyrrolo[2,3-d]pyrimidin-4-yl)-1H-pyrazol-1-yl]-1-(isopropylsulfonyl)azetidin-3-yl}acetonitrile was added to 3 mL of dioxane, then heated to 40° C. to dissolve and the obtained solution is clear. After filtration, the solution was volatilized and crystallized at 40° C. to obtain crystal form III.

solubility at 18 h [1]: 20.2 µg/mL (≈ 50.4 µM)
stability of the crystal form (result in words) ([2]; listed as Crystal form I): good stability
stability of the crystal form (result in words) ([2]; listed as crystal form I): better chemical stability
Appearance ([2]; 0 month): Off-white powder
Content ([2]; 0 month): 99.9%
Loss on Drying ([2]; 0 month): 0.08%
Related Substances, Most Unknown Impurity ([2]; 0 month): 0.17%
Related Substances, Total Impurities ([2]; 0 month): 0.58%
Appearance ([2]; 3 months): Off-white powder
Content ([2]; 3 months): 100.1%
Loss on Drying ([2]; 3 months): 0.06%
Related Substances, Most Unknown Impurity ([2]; 3 months): 0.16%
Related Substances, Total Impurities ([2]; 3 months): 0.57%
Appearance ([2]; 6 months): Off-white powder
Content ([2]; 6 months): 100.0%
Loss on Drying ([2]; 6 months): 0.08%
Related Substances, Most Unknown Impurity ([2]; 6 months): 0.17%
Related Substances, Total Impurities ([2]; 6 months): 0.57%
Appearance ([2]; 9 months): Off-white powder
Content ([2]; 9 months): 99.8%
Loss on Drying ([2]; 9 months): 0.11%
Related Substances, Most Unknown Impurity ([2]; 9 months): 0.17%
Related Substances, Total Impurities ([2]; 9 months): 0.57%
Appearance ([2]; 12 months): Off-white powder
Content ([2]; 12 months): 99.9%
Loss on Drying ([2]; 12 months): 0.09%
Related Substances, Most Unknown Impurity ([2]; 12 months): 0.17%
Related Substances, Total Impurities ([2]; 12 months): 0.55%
Appearance ([2]; 18 months): Off-white powder
Content ([2]; 18 months): 99.7%
Loss on Drying ([2]; 18 months): 0.12%
Related Substances, Most Unknown Impurity ([2]; 18 months): 0.18%
Related Substances, Total Impurities ([2]; 18 months): 0.62%
Appearance ([2]; 24 months): Off-white powder
Content ([2]; 24 months): 99.8%
Loss on Drying ([2]; 24 months): 0.10%
Related Substances, Most Unknown Impurity ([2]; 24 months): 0.16%
Related Substances, Total Impurities ([2]; 24 months): 0.59%
half-life ([3]; male, SD, rat, plasma, iv, intravenous group): 2.49 h
AUC(0-inf) ([3]; male, SD, rat, plasma, iv, intravenous group, read-out: AUC0-inf): 496 ng·h/mL
half-life ([3]; male, SD, rat, plasma, po, oral group (gavage)): 5.33 h
AUC(0-inf) ([3]; male, SD, rat, plasma, po, oral group (gavage), read-out: AUC0-inf): 941 ng·h/mL
Cmax ([3]; male, SD, rat, plasma, po, oral group (gavage), read-out: Cmax): 111 ng/mL
Tmax ([3]; male, SD, rat, plasma, po, oral group (gavage), read-out: Tmax): 2.67 h
F ([3]; oral group (gavage)): 37%
clearance ([3]; rat, plasma, intravenous group): 69.2 mL/min/kg
Vd ([3]; rat, plasma, intravenous group, read-out: Vss): 4.93 L/kg
solubility at 24 h ([4]; pH 6.8, aqueous buffer, pH 6.8, 37° C.): 1.2 µg/mL (≈ 3 µM)
solubility at 24 h ([4]; pH 7, aqueous buffer, pH 7.0, 37° C.): 1.3 µg/mL (≈ 3.25 µM)
solubility at 24 h ([4]; pH 8, aqueous buffer, pH 8.0, 37° C.): 1.2 µg/mL (≈ 3 µM)
transdermal performance / transdermal absorption (result in words) [5]: better transdermal performance
SMILES: CC(C)S(=O)(=O)N1CC(CC#N)(n2cc(-c3ncnc4[nH]ccc34)c(N)n2)C1 [Example 1, 2-{3-[3-amino-4-(7H-pyrrolo[2,3-d]pyrimidin-4-yl)-1H-pyrazol-1-yl]-1-(isopropylsulfonyl)azetidin-3-yl}acetonitrile crystal form I]
solubility compared with crystal form IIb (result in words) ([4]; summary): higher solubility and oral bioavailability than crystal form IIb

Appearance ([2]; 0 month): Off-white powder
Content ([2]; 0 month): 99.8%
Crystal Form ([2]; 0 month): IIa
Loss on Drying ([2]; 0 month): 0.06%
Related Substances, Most Unknown Impurity ([2]; 0 month): 0.06%
Related Substances, Total Impurities ([2]; 0 month): 0.28%
Appearance ([2]; 3 months): Off-white powder
Content ([2]; 3 months): 97.6%
Crystal Form ([2]; 3 months): IIb
Loss on Drying ([2]; 3 months): 0.18%
Related Substances, Most Unknown Impurity ([2]; 3 months): 0.08%
Related Substances, Total Impurities ([2]; 3 months): 0.28%
Appearance ([2]; 6 months): Off-white powder
Content ([2]; 6 months): 97.8%
Crystal Form ([2]; 6 months): IIb
Loss on Drying ([2]; 6 months): 0.19%
Related Substances, Most Unknown Impurity ([2]; 6 months): 0.11%
Related Substances, Total Impurities ([2]; 6 months): 0.27%
Appearance ([2]; 9 months): Off-white powder
Content ([2]; 9 months): 97.9%
Crystal Form ([2]; 9 months): IIb
Loss on Drying ([2]; 9 months): 0.24%
Related Substances, Most Unknown Impurity ([2]; 9 months): 0.06%
Related Substances, Total Impurities ([2]; 9 months): 0.24%
Appearance ([2]; 12 months): Off-white powder
Content ([2]; 12 months): 97.8%
Crystal Form ([2]; 12 months): IIb
Loss on Drying ([2]; 12 months): 0.20%
Related Substances, Most Unknown Impurity ([2]; 12 months): 0.09%
Related Substances, Total Impurities ([2]; 12 months): 0.22%
Appearance ([2]; 18 months): Off-white powder
Content ([2]; 18 months): 98.0%
Crystal Form ([2]; 18 months): IIb
Loss on Drying ([2]; 18 months): 0.16%
Related Substances, Most Unknown Impurity ([2]; 18 months): 0.07%
Related Substances, Total Impurities ([2]; 18 months): 0.26%
Appearance ([2]; 24 months): Off-white powder
Content ([2]; 24 months): 97.8%
Crystal Form ([2]; 24 months): IIb
Loss on Drying ([2]; 24 months): 0.25%
Related Substances, Most Unknown Impurity ([2]; 24 months): 0.08%
Related Substances, Total Impurities ([2]; 24 months): 0.29%
SMILES: CC(C)S(=O)(=O)N1CC(CC#N)(n2cc(-c3ncnc4[nH]ccc34)c(N)n2)C1 [Example 3, 2-{3-[3-amino-4-(7H-pyrrolo[2,3-d]pyrimidin-4-yl)-1H-pyrazol-1-yl]-1-(isopropylsulfonyl)azetidin-3-yl}acetonitrile crystal form IIa]
stability of the crystal form (result in words) [2]: gradually absorbed water during standing and was transformed into crystal form IIb

Appearance ([2]; 0 month): Off-white
Content ([2]; 0 month): 99.7%
Crystal Form ([2]; 0 month): IIb
Loss on Drying ([2]; 0 month): 0.36%
Related Substances, Most Unknown Impurity ([2]; 0 month): 0.07%
Related Substances, Total Impurities ([2]; 0 month): 0.38%
Appearance ([2]; 3 months): Off-white
Content ([2]; 3 months): 99.7%
Crystal Form ([2]; 3 months): IIb
Loss on Drying ([2]; 3 months): 0.36%
Related Substances, Most Unknown Impurity ([2]; 3 months): 0.08%
Related Substances, Total Impurities ([2]; 3 months): 0.38%
Appearance ([2]; 6 months): Off-white
Content ([2]; 6 months): 99.6%
Crystal Form ([2]; 6 months): IIb
Loss on Drying ([2]; 6 months): 0.39%
Related Substances, Most Unknown Impurity ([2]; 6 months): 0.08%
Related Substances, Total Impurities ([2]; 6 months): 0.37%
Appearance ([2]; 9 months): Off-white
Content ([2]; 9 months): 99.5%
Crystal Form ([2]; 9 months): IIb
Loss on Drying ([2]; 9 months): 0.34%
Related Substances, Most Unknown Impurity ([2]; 9 months): 0.08%
Related Substances, Total Impurities ([2]; 9 months): 0.38%
Appearance ([2]; 12 months): Off-white
Content ([2]; 12 months): 99.6%
Crystal Form ([2]; 12 months): IIb
Loss on Drying ([2]; 12 months): 0.30%
Related Substances, Most Unknown Impurity ([2]; 12 months): 0.07%
Related Substances, Total Impurities ([2]; 12 months): 0.37%
Appearance ([2]; 18 months): Off-white
Content ([2]; 18 months): 99.6%
Crystal Form ([2]; 18 months): IIb
Loss on Drying ([2]; 18 months): 0.31%
Related Substances, Most Unknown Impurity ([2]; 18 months): 0.07%
Related Substances, Total Impurities ([2]; 18 months): 0.39%
Appearance ([2]; 24 months): Off-white
Content ([2]; 24 months): 99.7%
Crystal Form ([2]; 24 months): IIb
Loss on Drying ([2]; 24 months): 0.32%
Related Substances, Most Unknown Impurity ([2]; 24 months): 0.08%
Related Substances, Total Impurities ([2]; 24 months): 0.39%
AUC(0-inf) ([3]; oral group (gavage)): 537 ng·h/mL
Cmax ([3]; oral group (gavage)): 114 ng/mL
F ([3]; oral group (gavage)): 22%
T1/2 ([3]; oral group (gavage)): 3.40 h
Tmax ([3]; oral group (gavage)): 3.17 h
drug concentration retained in animal skin relative to crystal form I [6]: up to 7 times
SMILES: CC(C)S(=O)(=O)N1CC(CC#N)(n2cc(-c3ncnc4[nH]ccc34)c(N)n2)C1 [Example 6, 2-{3-[3-amino-4-(7H-pyrrolo[2,3-d]pyrimidin-4-yl)-1H-pyrazol-1-yl]-1-(isopropylsulfonyl)azetidin-3-yl}acetonitrile crystal form IIb]
stability of the crystal form (result in words) [2]: better chemical stability; also recorded: good stability
transdermal performance / transdermal absorption (result in words) [5]: inferior to crystal form I in transdermal absorption

crystallinity and stability (result in words) [7]: poor crystallinity and stability
impurities generated after standing (nuclear magnetic resonance) ([7]; after standing): about 10%
SMILES: CC(C)S(=O)(=O)N1CC(CC#N)(n2cc(-c3ncnc4[nH]ccc34)c(N)n2)C1 [Example 8, 2-{3-[3-amino-4-(7H-pyrrolo[2,3-d]pyrimidin-4-yl)-1H-pyrazol-1-yl]-1-(isopropylsulfonyl)azetidin-3-yl}acetonitrile crystal form III]
